Data taken from US20240216317A1, “COMPOSITION FOR PREVENTING, AMELIORATING OR TREATING INFLAMMATORY BOWEL DISEASE COMPRISING COMPOUND ISOLATED FROM ISODON EXCISUS AS EFFECTIVE COMPONENT” (HEALINNOLS INC., priority 2022, published 2024).

Key:
[1] = test system: occludin; test: Immunofluorescence microscopy of tight junction-related protein occludin in intestinal epithelial wall model (DSS-treated Caco-2); format: cell-based, human; conditions: 3% DSS, 24 hours; Chemical formula 1 0.3, 1 or 3 μM; 5-ASA 500 μM; FIG. 3
Method: (§1) Caco-2 cell line (human intestinal epithelial cell line) and RAW 264.7 cell line, which is macrophage cells derived from mouse, were cultured at 37° C., 5% CO2 conditions by using DMEM (Dulbecco's Modified Eagle Medium, #11995065, Gibco) containing 10% FBS (fetal bovine serum, #16000044, Gibco) and 1% streptomycin/penicillin (#15140122, Gibco). For culturing the cells, the medium exchange was carried out every 2 to 3 days, and, once the cells are grown to the level of 80% in cell culture dish (#353003, Falcon), they were maintained by subculture.
(§2) The Caco-2 cells were adjusted to have density of 2×10^5 cells/ml. Suspension of the cells (0.5 ml) was aliquoted in apical side membrane phase of a transwell insert 12-well plate. To the basolateral side phase, 1.5 ml of culture medium were added. While replacing the medium with fresh one, once per 2 or 3 days, culture was continued for 21 days approximately, i.e., till to have cell division and suitable TEER (transepithelial electrical resistance) value of monolayer. […]
(§3) Thereafter, the cells were washed 3 times with 1×PBS for 5 minutes and treated for 5 minutes with Hoechst 33342 for staining the nucleus. […] After the mounting with ProLong™ Gold Antifade reagent, it was examined by confocal fluorescence microscopy.

[2] = test system: claudin1; test: Immunofluorescence microscopy of tight junction-related protein claudin1 in intestinal epithelial wall model (DSS-treated Caco-2); format: cell-based, human; conditions: 3% DSS, 24 hours; Chemical formula 1 0.3, 1 or 3 μM; 5-ASA 500 μM; FIG. 4
Method: as §1, §2, §3

[3] = test system: ZO-1; test: Immunofluorescence microscopy of tight junction-related protein ZO-1 in intestinal epithelial wall model (DSS-treated Caco-2); format: cell-based, human; conditions: 3% DSS, 24 hours; Chemical formula 1 0.3, 1 or 3 μM; 5-ASA 500 μM; FIG. 2
Method: as §1, §2, §3

[4] = test system: animal model of DSS-induced inflammatory bowel disease; test: Therapeutic effect in mouse model of DSS-induced inflammatory bowel disease (body weight, DAI, colon length); format: in vivo, mouse (C57BL/6); conditions: 5-ASA 100 mg/kg oral; for DAI / Colon length: Day 8, mouse, 2.5% DSS, Compound 1 2 mg/kg intraperitoneal; for DAI: 7 days, DSS group 11.75 ± 0.15; for Colon length: DSS group 4.9, normal control 8.4; for rate of body weight loss compared to group administered with DSS: mouse, 2.5% DSS 7 days, Chemical formula 1 2 mg/kg intraperitoneal, once a day for 7 days, FIG. 6
Description: As a mouse with induced inflammatory bowel disease, 6 week-old C57BL/6 was used, and the animal was induced to have the disease by administration of DSS (dextran sulfate sodium, MW 36000 to 50000, MP Biomedicals), Test groups were divided into the followings; normal control which has not been treated with any chemical (3 animals); group administered with DSS (6 animals); group administered with DSS+5-ASA (5-aminosalicylic acid, Sigma) (6 animals); and group administered with DSS+compound represented by Chemical formula 1 of the present invention (6 animals).
Inflammatory bowel disease is generally evaluated in terms of the disease activity index (DAI) based on clinical signs like body weight loss, diarrhea, and bloody feces. DAI is measured by giving a score to each of body weight loss rate, state of feces, and state of bloody feces (Table 1).
In this example, evaluation was made for 7 days for each test group. For all test groups except normal control, 100 ml of drinking water with 2.5% DSS were supplied for 7 days, while the water exchange was made every 2 days, to induce inflammatory bowel disease. The group administered with 5-ASA was orally administered, once a day for 7 days, with 100 mg/kg 5-ASA dispersed in 2.5% CMC (carboxymethylcellulose sodium, Sigma). The compound represented by Chemical formula 1 of the present invention (2 mg/kg) was administered via intraperitoneal injection, once a day for 7 days. From the first day of test, mouse of each test group was weighed to measure the rate of body weight loss. […] However, the weight loss was observed from Day 5 and thereafter in every test group induced to have inflammatory bowel disease by a treatment with DSS.
Evaluation of disease activity index (DAI) was also carried out, once a day from the first day of the test. From all test groups having inflammatory bowel disease induced by DSS treatment except normal control which has not been treated with any chemical, higher DAI was shown from Day 5 and thereafter.
Sum of each item analyzed on Day 8 based on the evaluation index of Table 1 was described as disease activation index (DAI) in Table 2.
With regard to the inflammatory response to inflammatory bowel disease, level of the response can be evaluated in terms of the decrease in colon length. Mouse in each test group was sacrificed on Day 8 and the colon was removed from the animal. Colon length was measured from the removed colon.

Row | SMILES | expression amount of occludin compared to DSS model group [1] | expression amount of claudin1 compared to DSS model group [2] | expression amount of ZO-1 compared to DSS model group [3] | DAI [4] | Colon length [4] [cm] | rate of body weight loss compared to group administered with DSS [4]
1 | Nc1ccc(O)c(C(=O)O)c1 [Compound 5-ASA, 5-aminosalicylic acid, reference compound] | statistically significantly higher | statistically significantly higher | statistically significantly higher | 10.67 ± 0.19 | 5.7 | lower rate of body weight loss
2 | COC(=O)C[C@H](OC(=O)/C=C/c1ccc(O)c(O)c1)c1ccc(O)c(O)c1 [Compound 1, 3-[3,4-dihydroxyphenyl]acrylic acid 1-[3,4-dihydroxyphenyl]-2-methoxycarbonylethyl ester] | statistically significantly higher | statistically significantly higher | statistically significantly higher | 8.75 ± 0.21 | 7.4 | lower rate of body weight loss
